Test results as given in patent publication US6376497B1, “Antifungal azole derivatives having a fluorinated vinyl group and process for preparing same” (Korea Research Institute of Chemical Technology, priority 1999, dated 2002).

Tests used:
Assay in all cases: In vitro antifungal activity, microbroth dilution MIC
Type in all cases: cell-based
[1] = test system: Candida albicans C1-2; settings: C. albicans C1-2, RPMI-1640, 35° C., 4 to 48 hours
Outline: (§1)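 Broth microdilution adapted from NCCLS M27, in RPMI-1640 with 0.165 M MOPS, pH 7.0. Yeast or mould inoculum at 2×10^3 CFU/ml was mixed 1:1 with DMSO-derived compound solutions (200 to 0.10 μg/ml before mixing) and incubated at 35 °C for 4 to 48 h. MIC was the concentration showing no growth.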

[2] = test system: Candida albicans A. 10231; settings: C. albicans A. 10231, RPMI-1640, 35° C., 4 to 48 hours
Outline: as §1

[3] = test system: Aspergillus furnigatus B. 19119; settings: 4 to 48 hours; for Minimal inhibitory concentration (MIC): A furnigatus B. 19119, RPMI-1640, 35° C.; for Minimal inhibitory concentration(MIC), A furnigatus B. 19119: RPMI-1640, 35° C., no growth observed
Outline: as §1

[4] = test system: Candida krusei K. 11655; settings: 4 to 48 hours; for Minimal inhibitory concentration (MIC): C. krusei K. 11655, RPMI-1640, 35° C.; for Minimal inhibitory concentration(MIC), C. krusei K. 11655: RPMI-1640, 35° C., no growth observed
Outline: as §1

[5] = test system: Trichophyton mentagrophytes B. 32663; settings: 4 to 48 hours; for Minimal inhibitory concentration (MIC): T. mentagrophytes B. 32663, RPMI-1640, 35° C.; for Minimal inhibitory concentration(MIC), T. mentagrophytes B. 32663: RPMI-1640, 35° C., no growth observed
Outline: as §1

[6] = test system: Candida parapsitosis A. 7330; settings: 4 to 48 hours; for Minimal inhibitory concentration (MIC): C. parapsitosis A. 7330, RPMI-1640, 35° C.; for Minimal inhibitory concentration(MIC), C. parapsitosis A. 7330: RPMI-1640, 35° C., no growth observed
Outline: as §1

[7] = test system: Candida tropicalis A. 13803; settings: 4 to 48 hours; for Minimal inhibitory concentration (MIC): C. tropicalis A. 13803, RPMI-1640, 35° C.; for Minimal inhibitory concentration(MIC), C. tropicalis A. 13803: RPMI-1640, 35° C., no growth observed
Outline: as §1

[8] = test system: Aspergillus niger A. 16404; settings: 4 to 48 hours; for Minimal inhibitory concentration (MIC): A. niger A. 16404, RPMI-1640, 35° C.; for Minimal inhibitory concentration(MIC), A. niger A. 16404: RPMI-1640, 35° C., no growth observed
Outline: as §1

[9] = test system: Cryptococcus neoformans A. 34144; settings: 4 to 48 hours; for Minimal inhibitory concentration (MIC): Cry. neoformans A. 34144, RPMI-1640, 35° C.; for Minimal inhibitory concentration(MIC), Cry. neoformans A. 34144: RPMI-1640, 35° C., no growth observed
Outline: as §1

[10] = test system: Trichophyton mentagrophytes A. 9129; settings: 4 to 48 hours; for Minimal inhibitory concentration (MIC): T. mentagrophytes A. 9129, RPMI-1640, 35° C.; for Minimal inhibitory concentration(MIC), T. mentagrophytes A. 9129: RPMI-1640, 35° C., no growth observed
Outline: as §1

[11] = test system: Cryptococcus neoformans B. 42419; settings: 4 to 48 hours; for Minimal inhibitory concentration (MIC): Cry. neoformans B. 42419, RPMI-1640, 35° C.; for Minimal inhibitory concentration(MIC), Cry. neoformans B. 42419: RPMI-1640, 35° C., no growth observed
Outline: as §1

[12] = test system: Candida pseudotropicalis K. 11658; settings: 4 to 48 hours; for Minimal inhibitory concentration (MIC): C. pseudotropicalis K. 11658, RPMI-1640, 35° C.; for Minimal inhibitory concentration(MIC), C. pseudotropicalis K. 11658: RPMI-1640, 35° C., no growth observed
Outline: as §1

[13] = test system: Cryptococcus neoformans IFM. 40092; settings: 4 to 48 hours; for Minimal inhibitory concentration (MIC): Cry. neoformans IFM. 40092, RPMI-1640, 35° C.; for Minimal inhibitory concentration(MIC), Cry. neoformans IFM. 40092: RPMI-1640, 35° C., no growth observed
Outline: as §1

[14] = test system: Candida albicans IFO. 1385; settings: 4 to 48 hours; for Minimal inhibitory concentration (MIC): C. albicans IFO. 1385, RPMI-1640, 35° C.; for Minimal inhibitory concentration(MIC), C. albicans IFO. 1385: RPMI-1640, 35° C., no growth observed
Outline: as §1

[15] = test system: Torulopsis glabrata B. 16205; settings: 4 to 48 hours; for Minimal inhibitory concentration (MIC): T. glabrata B. 16205, RPMI-1640, 35° C.; for Minimal inhibitory concentration(MIC), T. glabrata B. 16205: RPMI-1640, 35° C., no growth observed
Outline: as §1

## FC(OCC1COC(Cn2ccnc2)(c2ccc(F)cc2F)O1)=C(c1cc(Cl)cc(Cl)c1)C(F)(F)F (mixture of isomers) [Ex. 67]
[1]
  Minimal inhibitory concentration (MIC): 12.5 µg/mL
[2]
  Minimal inhibitory concentration (MIC): 12.5 µg/mL
[3]
  Minimal inhibitory concentration (MIC): 3.13 µg/mL
[4]
  Minimal inhibitory concentration (MIC): 50.0 µg/mL
[5]
  Minimal inhibitory concentration (MIC): 1.56 µg/mL
[6]
  Minimal inhibitory concentration (MIC): 100 µg/mL
[7]
  Minimal inhibitory concentration (MIC): 100 µg/mL
[8]
  Minimal inhibitory concentration (MIC): 100 µg/mL
[9]
  Minimal inhibitory concentration (MIC): 1.56 µg/mL
[10]
  Minimal inhibitory concentration (MIC): 6.25 µg/mL
[11]
  Minimal inhibitory concentration (MIC): 1.56 µg/mL
[12]
  Minimal inhibitory concentration (MIC): 25.0 µg/mL
[13]
  Minimal inhibitory concentration (MIC): 0.20 µg/mL
[14]
  Minimal inhibitory concentration (MIC): 0.78 µg/mL
[15]
  Minimal inhibitory concentration (MIC): 6.25 µg/mL

## FC(OCC1COC(Cn2ccnc2)(c2ccc(F)cc2F)O1)=C(c1cccs1)C(F)(F)F (mixture of isomers) [Ex. 68]
[1]
  Minimal inhibitory concentration (MIC): 12.5 µg/mL
[2]
  Minimal inhibitory concentration (MIC): 6.25 µg/mL
[3]
  Minimal inhibitory concentration (MIC): 1.56 µg/mL
[4]
  Minimal inhibitory concentration (MIC): 50.0 µg/mL
[5]
  Minimal inhibitory concentration (MIC): 1.56 µg/mL
[6]
  Minimal inhibitory concentration (MIC): >100 µg/mL
[7]
  Minimal inhibitory concentration (MIC): 50.0 µg/mL
[8]
  Minimal inhibitory concentration (MIC): 12.5 µg/mL
[9]
  Minimal inhibitory concentration (MIC): 1.56 µg/mL
[10]
  Minimal inhibitory concentration (MIC): 1.56 µg/mL
[11]
  Minimal inhibitory concentration (MIC): 0.78 µg/mL
[12]
  Minimal inhibitory concentration (MIC): 25.0 µg/mL
[13]
  Minimal inhibitory concentration (MIC): ≦0.10 μg/ml
[14]
  Minimal inhibitory concentration (MIC): 0.78 µg/mL
[15]
  Minimal inhibitory concentration (MIC): 3.13 µg/mL

## FC(=Cc1ccccc1)OCC1COC(Cn2cncn2)(c2ccc(Cl)cc2Cl)O1 (mixture of isomers) [Ex. 69]
[1]
  Minimal inhibitory concentration (MIC): 25.0 µg/mL
[2]
  Minimal inhibitory concentration (MIC): 25.0 µg/mL
[3]
  Minimal inhibitory concentration (MIC): 6.25 µg/mL
[4]
  Minimal inhibitory concentration (MIC): 12.5 µg/mL
[5]
  Minimal inhibitory concentration (MIC): 0.39 µg/mL
[6]
  Minimal inhibitory concentration (MIC): >100 µg/mL
[7]
  Minimal inhibitory concentration (MIC): >100 µg/mL
[8]
  Minimal inhibitory concentration (MIC): 6.25 µg/mL
[9]
  Minimal inhibitory concentration (MIC): 3.13 µg/mL
[10]
  Minimal inhibitory concentration (MIC): 0.78 µg/mL
[11]
  Minimal inhibitory concentration (MIC): 1.56 µg/mL
[12]
  Minimal inhibitory concentration (MIC): 6.25 µg/mL
[13]
  Minimal inhibitory concentration (MIC): 0.39 µg/mL
[14]
  Minimal inhibitory concentration (MIC): 3.13 µg/mL
[15]
  Minimal inhibitory concentration (MIC): 25 µg/mL

## Cc1cccc(C=C(F)OCC2COC(Cn3cncn3)(c3ccc(Cl)cc3Cl)O2)c1 (mixture of isomers) [Ex. 70]
[1]
  Minimal inhibitory concentration (MIC): 25.0 µg/mL
[2]
  Minimal inhibitory concentration (MIC): 25.0 µg/mL
[3]
  Minimal inhibitory concentration (MIC): 50.0 µg/mL
[4]
  Minimal inhibitory concentration (MIC): 100 µg/mL
[5]
  Minimal inhibitory concentration (MIC): 3.13 µg/mL
[6]
  Minimal inhibitory concentration (MIC): >100 µg/mL
[7]
  Minimal inhibitory concentration (MIC): 100 µg/mL
[8]
  Minimal inhibitory concentration (MIC): 100 µg/mL
[9]
  Minimal inhibitory concentration (MIC): 3.13 µg/mL
[10]
  Minimal inhibitory concentration (MIC): 3.13 µg/mL
[11]
  Minimal inhibitory concentration (MIC): 3.13 µg/mL
[12]
  Minimal inhibitory concentration (MIC): 50.0 µg/mL
[13]
  Minimal inhibitory concentration (MIC): 0.78 µg/mL
[14]
  Minimal inhibitory concentration (MIC): 6.25 µg/mL
[15]
  Minimal inhibitory concentration (MIC): 25.0 µg/mL

## Cc1ccc(C=C(F)OCC2COC(Cn3cncn3)(c3ccc(Cl)cc3Cl)O2)cc1 (mixture of isomers) [Ex. 71]
[1]
  Minimal inhibitory concentration (MIC): 50.0 µg/mL
[2]
  Minimal inhibitory concentration (MIC): 50.0 µg/mL
[3]
  Minimal inhibitory concentration(MIC), A furnigatus B. 19119: 100 µg/mL
[4]
  Minimal inhibitory concentration(MIC), C. krusei K. 11655: 100 µg/mL
[5]
  Minimal inhibitory concentration(MIC), T. mentagrophytes B. 32663: 6.25 µg/mL
[6]
  Minimal inhibitory concentration(MIC), C. parapsitosis A. 7330: 100 µg/mL
[7]
  Minimal inhibitory concentration(MIC), C. tropicalis A. 13803: 100 µg/mL
[8]
  Minimal inhibitory concentration(MIC), A. niger A. 16404: 100 µg/mL
[9]
  Minimal inhibitory concentration(MIC), Cry. neoformans A. 34144: 1.56 µg/mL
[10]
  Minimal inhibitory concentration(MIC), T. mentagrophytes A. 9129: 6.25 µg/mL
[11]
  Minimal inhibitory concentration(MIC), Cry. neoformans B. 42419: 1.56 µg/mL
[12]
  Minimal inhibitory concentration(MIC), C. pseudotropicalis K. 11658: 25.0 µg/mL
[13]
  Minimal inhibitory concentration(MIC), Cry. neoformans IFM. 40092: 0.20 µg/mL
[14]
  Minimal inhibitory concentration(MIC), C. albicans IFO. 1385: 6.25 µg/mL
[15]
  Minimal inhibitory concentration(MIC), T. glabrata B. 16205: 25.0 µg/mL

## CCc1ccc(C=C(F)OCC2COC(Cn3cncn3)(c3ccc(Cl)cc3Cl)O2)cc1 (mixture of isomers) [Ex. 72]
[1]
  Minimal inhibitory concentration (MIC): 25.0 µg/mL
[2]
  Minimal inhibitory concentration (MIC): 250 µg/mL
[3]
  Minimal inhibitory concentration(MIC), A furnigatus B. 19119: >100 µg/mL
[4]
  Minimal inhibitory concentration(MIC), C. krusei K. 11655: 25.0 µg/mL
[5]
  Minimal inhibitory concentration(MIC), T. mentagrophytes B. 32663: 12.5 µg/mL
[6]
  Minimal inhibitory concentration(MIC), C. parapsitosis A. 7330: 100 µg/mL
[7]
  Minimal inhibitory concentration(MIC), C. tropicalis A. 13803: 25.0 µg/mL
[8]
  Minimal inhibitory concentration(MIC), A. niger A. 16404: >100 µg/mL
[9]
  Minimal inhibitory concentration(MIC), Cry. neoformans A. 34144: 3.13 µg/mL
[10]
  Minimal inhibitory concentration(MIC), T. mentagrophytes A. 9129: 12.5 µg/mL
[11]
  Minimal inhibitory concentration(MIC), Cry. neoformans B. 42419: 3.13 µg/mL
[12]
  Minimal inhibitory concentration(MIC), C. pseudotropicalis K. 11658: 12.5 µg/mL
[13]
  Minimal inhibitory concentration(MIC), Cry. neoformans IFM. 40092: 1.56 µg/mL
[14]
  Minimal inhibitory concentration(MIC), C. albicans IFO. 1385: 1.56 µg/mL
[15]
  Minimal inhibitory concentration(MIC), T. glabrata B. 16205: 25.0 µg/mL

## Cc1cc(C)cc(C=C(F)OCC2COC(Cn3cncn3)(c3ccc(Cl)cc3Cl)O2)c1 (mixture of isomers) [Ex. 73]
[1]
  Minimal inhibitory concentration (MIC): 50.0 µg/mL
[2]
  Minimal inhibitory concentration (MIC): 50.0 µg/mL
[3]
  Minimal inhibitory concentration(MIC), A furnigatus B. 19119: >100 µg/mL
[4]
  Minimal inhibitory concentration(MIC), C. krusei K. 11655: 100 µg/mL
[5]
  Minimal inhibitory concentration(MIC), T. mentagrophytes B. 32663: 25.0 µg/mL
[6]
  Minimal inhibitory concentration(MIC), C. parapsitosis A. 7330: >100 µg/mL
[7]
  Minimal inhibitory concentration(MIC), C. tropicalis A. 13803: >100 µg/mL
[8]
  Minimal inhibitory concentration(MIC), A. niger A. 16404: >100 µg/mL
[9]
  Minimal inhibitory concentration(MIC), Cry. neoformans A. 34144: 12.5 µg/mL
[10]
  Minimal inhibitory concentration(MIC), T. mentagrophytes A. 9129: 25.0 µg/mL
[11]
  Minimal inhibitory concentration(MIC), Cry. neoformans B. 42419: 6.25 µg/mL
[12]
  Minimal inhibitory concentration(MIC), C. pseudotropicalis K. 11658: 50.0 µg/mL
[13]
  Minimal inhibitory concentration(MIC), Cry. neoformans IFM. 40092: 1.56 µg/mL
[14]
  Minimal inhibitory concentration(MIC), C. albicans IFO. 1385: 12.5 µg/mL
[15]
  Minimal inhibitory concentration(MIC), T. glabrata B. 16205: 50.0 µg/mL
